# Reference: patent US5760036A, “Aminediol protease inhibitors” (E. R. Squibb & Sons, Inc., priority 1995, dated 1998)
# Structures can show the parent of a compound that is named as a salt.
# Target: T1, HIV protease (Human immunodeficiency virus type 1 group M subtype B, UniProt P04585)
# T1 construct: and purified protease
# Assay: HIV Protease Assay
# Format: biochemical
# Conditions: 10 μM inhibitor, 4% DMSO, 450 μM substrate, pH 5.5, 30 minutes at 37° C., RP-HPLC
# Procedure: An HIV protease standard assay was performed in a 60 μl reaction medium containing 50 mM sodium acetate, pH 5.5, 100 μg/ml bovine serum albumen,450 μM substrate (H2 N-Val-Ser-Gln-Asn-(β-naphthyl-alanine)-Pro-Val-Ile-OH), and purified protease. The reaction medium was incubated for 30 minutes at 37° C., quenched by the addition of 140 μl 5% H3 PO4, then analyzed by reverse phase HPLC using UV220 detection. In a typical control assay, 7% of the substrate was hydrolyzed. Aminediol inhibitors of the present invention, listed in the following Table 1, were then employed in the assay, for which purpose they were prepared as a […] solution in DMSO, then diluted to 30 μM with 50 mM sodium acetate/bovine serum albumen. This working stock was then diluted three-fold into the protease reaction medium, for a final concentration of 10 μM inhibitor and 4% DMSO.
row,HIV Protease % Inhibition at 10 μM,SMILES
1,66%,"CC(C)(C)OC(=O)N[C@@H](Cc1ccccc1)[C@H](O)CNC[C@@H](O)[C@H](Cc1ccccc1)NC(=O)OC1c2ccccc2CC1O (stereo partly drawn) [Compound 215, [1S-(1R*,2S*)(trans)]-[Iminobis[2-hydroxy-1-(phenylmethyl)-3,1-propanediyl)]biscarbamic acid, 1,1-dimethylethyl 2,3-dihydro-2-hydroxy-1H-inden-1-yl ester]"
2,69%,"CC(C)(C)OC(=O)N[C@@H](Cc1ccccc1)[C@H](O)CNC[C@@H](O)[C@H](Cc1ccccc1)NC(=O)C1NC(=O)CC1(C)C (single isomer, unassigned) [Compound 266, [1S-[1R*,2S*(2S*,3R*)]]-[3-[[3-[[(3,3-Dimethyl-5-oxo-2-pyrrolidinyl)carbonyl]amino]-2-hydroxy-4-phenylbutyl]amino]-2-hydroxy-1-(phenylmethyl)propyl]carbamic acid, 1,1-dimethylethyl ester]"

row,SMILES,HIV Protease % Inhibition at 10 μM
1,"CC(C)(C)OC(=O)N[C@@H](Cc1ccccc1)[C@H](O)CNC[C@@H](O)[C@H](Cc1ccccc1)NC(=O)C1(O)CCc2ccccc21 (single isomer, unassigned; isomer b) [Compound 376, [1S-[1R*,2S*(2S*, 3R*)]]-[3-[[3-[[(2,3-Dihydro-1-hydroxy-1H-inden-1-yl)carbonyl]amino]-2-hydroxy-4-phenylbutyl]amino]-2-hydroxy-1-(phenylmethyl)propyl]carbamic acid, 1.1-dimethylethyl ester, isomer B]",63%

# Same assay, conditions: pH 5.5, 10 μM inhibitor, 4% DMSO, 450 μM substrate, pH 5.5, 30 minutes at 37° C., RP-HPLC; read-out: HIV Protease % Inhibition at 10 μM
row,inhibition at 10 µM,SMILES
1,46%,"CC(C)(C)CS(=O)(=O)N[C@@H](Cc1ccccc1)[C@H](O)CNC[C@@H](O)[C@H](Cc1ccccc1)NC(=O)OC(C)(C)C [Compound 181, [1S-[1R*,2S*(2S*,3R*)]]-[3-[[3-[[(2,2-Dimethy]propyl)sulfonyl]amino]-2-hydroxy-4-phenylbutyl]amino]-2-hydroxy-1-(phenylmethyl)propyl]carbamic acid 1,1-dimethylethyl ester]"
2,73%,"CC(C)(C)OC(=O)N[C@@H](Cc1ccccc1)[C@H](O)CNC[C@@H](O)[C@H](Cc1ccccc1)NC(=O)OC(C)(C)CCCN [Compound 180, [1S-(1R*,2S*)]-[Iminobis[2-hydroxy-1-(phenylmethyl)-3,1-propanediyl]biscarbamic acid, 4-amino-1,1-dimethylbutyl 1,1-dimethylethyl ester, fumarate (2:3) salt]"
3,54%,"CC(C)(C)OC(=O)N[C@@H](Cc1ccccc1)[C@H](O)CNC[C@@H](O)[C@H](Cc1ccccc1)NC(=O)C1c2ccccc2CC1O (stereo partly drawn) [Compound 237, [1S-[1R*,2S*[2S*,3R*(trans)]]]-[3-[[3-[[(2,3-Dihydro-2-hydroxy-1H-inden-1-yl)carbonyl]amino]-2-hydroxy-4-phenylbutyl]amino]-2-hydroxy-1-(phenylmethyl)propyl]carbamic acid, 1,1-dimethylethyl ester]"
4,11%,"CC(C)(C)OC(=O)N[C@@H](Cc1ccccc1)[C@H](O)CNC[C@@H](O)[C@H](Cc1ccccc1)NC(=O)c1ccc2ccccc2n1 [Compound 65, [1S-[1R*,2S*(2S*,3R*)]]-[2-Hydroxy-3-[[2-hydroxy-4-phenyl-3-[(2-quinolinylcarbonyl)-amino]butyl]amino]-1-(phenylmethyl)propyl]carbamic acid, 1,1-dimethylethyl ester]"
5,97%,"CC(C)(C)OC(=O)N[C@@H](Cc1ccccc1)[C@H](O)CNC[C@@H](O)[C@H](Cc1ccc(OCCN2CCOCC2=O)cc1)NC(=O)OC(C)(C)C [Compound 380, [1S-[1R*, 2S*(2S*, 3R*)]]-[3-[[3-[[(1,1-Dimethylethoxy)carbonyl]amino]-2-hydroxy-4-[4-[2-(3-oxo-4-morpholinyl)ethoxy]phenyl]-butyl]amino]-2-hydroxy-1-(phenylmethyl)propyl]-carbamic acid, 1,1-dimethylethyl ester]"
6,85%,"CC(C)(C)OC(=O)N[C@@H](Cc1ccccc1)[C@H](O)CNC[C@@H](O)[C@H](Cc1ccccc1)NC(=O)OCc1nc(-c2ccccc2)c[nH]1 [Compound 253, [R-(R*,S*)]-[Iminobis[2-hydroxy-1-(phenylmethyl)-3,1-propanediyl)]biscarbamic acid, 1,1-dimethylethyl(4-phenyl-1H-imidazol-2-yl)methyl ester]"
7,53%,"CC(C)(C)OC(=O)N[C@@H](Cc1ccccc1)[C@H](O)CNC[C@@H](O)[C@H](Cc1ccccc1)NC(=O)COc1cccc2ccccc12 [Compound 63, [1S-[1R*,2S*(2S*,3R*)]]-[2-Hydroxy-3-[[2-hydroxy-3-[[(1-naphthalenyloxy)-acetyl]amino]-4-phenylbutyl]amino]-1-(phenyl-methyl)propyl]carbamic acid, 1,1-dimethylethyl ester]"
8,99%,"CNC(=O)C(O)(C(=O)N[C@@H](Cc1ccccc1)[C@H](O)CNC[C@@H](O)[C@H](Cc1ccccc1)NC(=O)OC(C)(C)C)C(C)(C)C (single isomer, unassigned; isomer a) [Compound 384, [1S-[1R*,2S*(2S*, 3R*)]]-[3-[[3-[[2-Hydroxy-3,3-dimethyl-2-[(methylamino)carbonyl]-1-oxobutyl]amino]-2-hydroxy-4-phenylbutyl]amino]-2-hydroxy-1-(phenylmethyl)propyl]carbamic acid, 1,1-dimethylethyl ester, isomer A]"
9,< 16%,"CC(C)(C)OC(=O)NC[C@@H](O)[C@@H](Cc1ccccc1)NC[C@@H](O)[C@H](Cc1ccccc1)NC(=O)OC(C)(C)C [Compound 190, [2R-[2R*,3R*(2R*,3S*)]]-[3-[[3-[[(1,1-Dimethylethoxy)carbonyl]amino]-2-hydroxy-4-phenyl-butyl]amino]-2-hydroxy-4-phenylbutyl]carbamic acid, 1,1-dimethylethyl ester]"
10,27%,"CC(C)(C)OC(=O)N[C@@H](Cc1ccccc1)[C@H](O)CNC[C@@H](O)[C@H](Cc1ccccc1)NC(=O)C1c2ccccc2CN1C=O (stereo partly drawn) [Compound 270, [1S-[1R*,2S*(2S*,3R*)]]-[3-[[3-[[(2-Formyl-2,3-dihydro-1H-isoindol-1-yl)carbonyl]amino]-2-hydroxy-4-phenylbutyl]amino]-2-hydroxy-1-(phenylmethyl)-propyl]carbamic acid 1,1-dimethylethyl ester]"
11,99%,"CC(C)(C)OC(=O)N[C@@H](Cc1ccccc1)[C@H](O)CNC[C@@H](O)[C@H](Cc1ccccc1OCc1ccccc1)NC(=O)OC(C)(C)C [Compound 348, [1S-[1R*,2S*(2S*,3R*)]]-[3-[[(3-[[(1,1-Dimethylethoxy)carbonyl]amino]-2-hydroxy-4-[2-(phenylmethoxy)phenyl]butyl]amino]-2-hydroxy-1-(phenylmethyl)propyl]carbamic acid, 1,1-dimethylethyl ester]"
12,45%,"CC(C)[C@H](N)C(=O)N[C@@H](Cc1ccccc1)[C@H](O)CNC[C@@H](O)[C@H](Cc1ccccc1)NC(=O)OC(C)(C)C [Compound 59, [S-[1R*,2S*(2S*,3R*)-N-[3 [[3-[[(1,1-Dimethylethoxy)carbonyl]amino]-2-hydroxy-4-phenylbutyl]amino]-2-hydroxy-1-(phenylmethyl)-propyl-L-valinamide]"
